Values quoted from earlier work, collected in US12708613B2, “Methods for improving physical exercise performance” (NOMIO NUTRITION AB, priority 2020, dated 2026).

System: mice

## C[S+]([O-])CCCCN=C=S (centres unmarked) [sulforaphane, 1-Isothiocyanato-4-(methanesulfinyl)butane]
Mice models
  effect on glucose levels: no effect
mice, injected (intraperitoneally, 25 mg/kg body weight)
  endurance: improved endurance
